Like-named read-outs stand apart in the source and are kept apart here.
Target: T1, Recombinant KAT6A/MOZ (488-778) protein (Homo sapiens, UniProt Q92794)
T1 construct: Recombinant KAT6A/MOZ (488-778) protein (Active motif, Catalog #81223); purchased Active Motif 81223
Assay: Kat6a AlphaLISA Inhibition Screening Assay
Type: biochemical
Procedure, shortened: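 Recombinant KAT6A (488-778), 25 nM, was preincubated with compound (10-point dose response) for 60 or 10 min. It then reacted 120 min at room temperature with 200 nM biotin-H3(1-21) peptide and 400 nM acetyl-CoA, pH 8.0, with 330 nM TSA present. Acetylation was detected by AlphaLISA (anti-acetyl-lysine acceptor, streptavidin donor beads).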

[1] = 60′ pre-incubation, Table 3, read-out: Kat6A Biochemical assay: IC50
[2] = 10′ pre-incubation, Table 2, read-out: Kat6A biochemical assay: IC50
[3] = 60′ pre-incubation, Table 2, read-out: Kat6A biochemical assay: IC50
[4] = 10′ pre-incubation, Table 3, read-out: Kat6A Biochemical assay: IC50

T1 sequence (Q92794 488-778): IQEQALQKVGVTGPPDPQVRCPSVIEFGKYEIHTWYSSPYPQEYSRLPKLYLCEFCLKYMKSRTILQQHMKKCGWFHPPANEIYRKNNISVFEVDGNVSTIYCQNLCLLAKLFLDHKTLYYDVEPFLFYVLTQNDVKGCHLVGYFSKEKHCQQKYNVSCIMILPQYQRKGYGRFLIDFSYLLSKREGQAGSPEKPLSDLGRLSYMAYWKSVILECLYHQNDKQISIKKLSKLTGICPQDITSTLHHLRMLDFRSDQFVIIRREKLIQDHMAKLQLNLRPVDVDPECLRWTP

Structure (SMILES) | IC50 [1] [µM] | IC50 [3] [µM] | also measured
C#CC(=O)N1CCC(c2cccc(-c3cc(OC)c4c(NS(=O)(=O)c5c(OC)cccc5OC)noc4c3)c2)CC1 [compound 101, 2,6-dimethoxy-N-(4-methoxy-6-(3-(1-propioloylpiperidin-4-yl)phenyl)benzo[d]isoxazol-3-yl) benzenesulfonamide] | ≤ 10 |  | 
C=CC(=O)NCC(=O)NCc1ccc2cc(C(=O)NS(=O)(=O)c3ccccc3F)oc2c1 [Synthetic Example 39, 6-((2-acrylamidoacetamido)methyl)-N-((2-fluorophenyl)sulfonyl)benzofuran-2-carboxamide] |  |  | IC50 [2]: 20 to 50 µM
C=CC(=O)N1CCC(C(=O)NCc2ccc3cc(C(=O)NS(=O)(=O)c4ccccc4F)oc3c2)C1 (centres unmarked) [Synthetic Example 40, 1-acryloyl-N-((2-(((2-fluorophenyl)sulfonyl)carbamoyl)benzofuran-6-yl)methyl)pyrrolidine-3-carboxamide] |  |  | IC50 [2]: > 100 µM
C=CS(=O)(=O)N1Cc2cnn(Cc3cc(OC)c4c(NS(=O)(=O)c5ccccc5OC)noc4c3)c2C1 [Synthetic Example 27A, 2-methoxy-N-(4-methoxy-6-((5-(vinylsulfonyl)-5,6-dihydropyrrolo[3,4-c]pyrazol-1(4H)-yl)methyl)benzo[d]isoxazol-3-yl)benzenesulfonamide] |  | ≤ 10 | 
C=CC(=O)N1C[C@H]2CN(Cc3cc(OC)c4c(NS(=O)(=O)c5ccccc5OC)noc4c3)C[C@H]2C1 [Synthetic Example 50, N-(6-(((3aR,6aS)-5-acryloylhexahydropyrrolo[3,4-c]pyrrol-2(1H)-yl)methyl)-4-methoxybenzo[d]isoxazol-3-yl)-2-methoxybenzenesulfonamide] |  | ≤ 10 | 
C=CC(=O)NCc1ccn(Cc2cc(OC)c3c(NS(=O)(=O)c4ccccc4F)noc3c2)n1 [Synthetic Example 18, N-((1-((3-((2-fluorophenyl)sulfonamido)-4-methoxybenzo[d]isoxazol-6-yl)methyl)-1H-pyrazol-3-yl)methyl)acrylamide] |  | ≤ 10 | 
COc1cccc(OC)c1S(=O)(=O)Nc1nn(C)c2cc(Cn3cccn3)cc(OC)c12 [compound 123, N-(6-((1H-pyrazol-1-yl)methyl)-4-methoxy-1-methyl-1H-indazol-3-yl)-2,6-dimethoxybenzenesulfonamide] |  |  | IC50 [4]: 10 to 20 µM
C#CC(=O)N1CCCN(c2cnc(-c3cc(OC)c4c(NS(=O)(=O)c5cc(CC)ccc5OC)noc4c3)s2)CC1 [compound 104, 5-ethyl-2-methoxy-N-(4-methoxy-6-(5-(4-propioloyl-1,4-diazepan-1-yl)thiazol-2-yl)benzo[d]isoxazol-3-yl) benzenesulfonamide] | ≤ 10 |  | 
C=CC(=O)NC1CCN(Cc2cc(OC)c3c(NS(=O)(=O)c4ccccc4OC)noc3c2)CC1 [Synthetic Example 49, N-(1-((4-methoxy-3-((2-methoxyphenyl)sulfonamido)benzo[d]isoxazol-6-yl)methyl)piperidin-4-yl)acrylamide] |  | ≤ 10 | 
C#CC(=O)NCc1cnn(Cc2cc(OC)c3c(NS(=O)(=O)c4cccc(OC)c4)noc3c2)c1 [Synthetic Example 35, N-((1-((4-methoxy-3-((3-methoxyphenyl)sulfonamido)benzo[d]isoxazol-6-yl)methyl)-1H-pyrazol-4-yl)methyl)propiolamide] |  | ≤ 10 | 
COc1cc(Cn2ncc3c2CNC3)cc2onc(NS(=O)(=O)CC3CCCCC3)c12 [Synthetic Example 28A, 1-cyclohexyl-N-(6-((5,6-dihydropyrrolo[3,4-c]pyrazol-1(4H)-yl)methyl)-4-methoxybenzo[d]isoxazol-3-yl)methanesulfonamide] |  | ≤ 10 | 
C#CC(=O)N1C[C@H]2CN(Cc3cc(OC)c4c(NS(=O)(=O)c5ccccc5OC)noc4c3)C[C@H]2C1 [Synthetic Example 44, 2-methoxy-N-(4-methoxy-6-(((3aR,6aS)-5-propioloylhexahydropyrrolo[3,4-c]pyrrol-2(1H)-yl)methyl)benzo[d]isoxazol-3-yl)benzenesulfonamide] |  | ≤ 10 | 
C#CC(=O)NCc1cnn(Cc2cc(OC)c3c(NS(=O)(=O)c4c(OC)cccc4OC)noc3c2)c1 [Synthetic Example 34, N-((1-((3-((2,6-dimethoxyphenyl)sulfonamido)-4-methoxybenzo[d]isoxazol-6-yl)methyl)-1H-pyrazol-4-yl)methyl)propiolamide] |  | ≤ 10 | 
C#CC(=O)NCc1ccn(Cc2cc(OC)c3c(NS(=O)(=O)CC4CCCCC4)noc3c2)n1 [Synthetic Example 8, N-((1-((3-((cyclohexylmethyl)sulfonamido)-4-methoxybenzo[d]isoxazol-6-yl)methyl)-1H-pyrazol-3-yl)methyl)propiolamide] |  |  | IC50 [2]: ≤ 10 µM
C=CC(=O)N1CCC(c2ccnc(-c3cc(C)cc(C(=O)NNS(=O)(=O)c4ccccc4F)c3)c2)CC1 [Synthetic Example 41, N-(3-(4-(1-acryloylpiperidin-4-yl)pyridin-2-yl)-5-methylbenzoyl)-2-fluorobenzenesulfonohydrazide] |  | ≤ 10 | 
COc1cccc(OC)c1S(=O)(=O)Nc1n[nH]c2cc(Cn3cccn3)cc(OC)c12 [compound 125, N-(6-((1H-pyrazol-1-yl)methyl)-4-methoxy-1H-indazol-3-yl)-2,6-dimethoxybenzenesulfonamide] |  |  | IC50 [4]: ≤ 10 µM
COc1cc(Cn2cccn2)cc2c1c(NS(=O)(=O)c1ccccc1F)nn2C [compound 122, N-(6-((1H-pyrazol-1-yl)methyl)-4-methoxy-1-methyl-1H-indazol-3-yl)-2-fluorobenzenesulfonamide] |  |  | IC50 [4]: 20 to 50 µM
C#CC(=O)N1CCc2nn(Cc3cc(OC)c4c(NS(=O)(=O)c5cc(CC)ccc5OC)noc4c3)cc2C1 [105b, 5-ethyl-2-methoxy-N-(4-methoxy-6-((5-propioloyl-4,5,6,7-tetrahydro-2H-pyrazolo[4,3-c]pyridin-2-yl)methyl)benzo[d]isoxazol-3-yl)benzenesulfonamide] | ≤ 10 |  | 
C#CC(=O)N1CCN(c2cccc(-c3cc4onc(NS(=O)(=O)c5c(OC)cccc5OC)c4cc3C)c2)CC1 [compound 120, 2,6-dimethoxy-N-(5-methyl-6-(3-(4-propioloylpiperazin-1-yl)phenyl)benzo[d]isoxazol-3-yl) benzenesulfonamide] | ≤ 10 |  | 

Continued, in another order:

IC50 [1] [µM] | IC50 [3] [µM] | Structure (SMILES) | also measured
≤ 10 |  | C#CC(=O)N1CCN(c2cccc(-c3cc(OC)c4c(NS(=O)(=O)N(C)C5CCCCC5)noc4c3)c2)CC1 [compound 112, 3-[[cyclohexyl(methyl)sulfamoyl]amino]-4-methoxy-6-[3-(4-prop-2-ynoylpiperazin-1-yl)phenyl]-1,2-benzoxazole] | 
 | ≤ 10 | C#CC(=O)NCc1cnn(Cc2cc(OC)c3c(NS(=O)(=O)c4ccccc4C(=O)NC)noc3c2)c1 [compound 68, 2-(N-(4-methoxy-6-((4-(propiolamidomethyl)-1H-pyrazol-1-yl)methyl)benzo[d]isoxazol-3-yl)sulfamoyl)-N-methylbenzamide] | 
≤ 10 |  | C#CC(=O)N1CCN(c2cccc(-c3cc(OC)c4c(NS(=O)(=O)NC5CCCCC5)noc4c3)c2)CC1 [compound 111] | 
 | ≤ 10 | C=CC(=O)N1CCN(c2cccc(-c3cc(OC)c4c(NS(=O)(=O)c5c(OC)cccc5OC)noc4c3)c2)CC1 [Synthetic Example 56, N-(6-(3-(4-acryloylpiperazin-1-yl)phenyl)-4-methoxybenzo[d]isoxazol-3-yl)-2,6-dimethoxybenzenesulfonamide] | 
 | > 10 | COc1ccccc1S(=O)(=O)Nc1noc2cc(CN3CCC(C(=O)NCC#N)C3)cc(OC)c12 (centres unmarked) [Synthetic Example 67, N-(cyanomethyl)-1-((4-methoxy-3-((2-methoxyphenyl)sulfonamido)benzo[d]isoxazol-6-yl)methyl) pyrrolidine-3-carboxamide] | 
 | ≤ 10 | C#CC(=O)NCc1cnn(Cc2cc(OC)c3c(NS(=O)(=O)CC4CCCCC4)noc3c2)c1 [compound 5] | 
≤ 10 |  | C=CS(=O)(=O)NCc1cnn(Cc2cc(OC)c3c(NS(=O)(=O)c4cc(CC)ccc4OC)noc3c2)c1 [compound 81, 5-ethyl-2-methoxy-N-(4-methoxy-6-((4-(vinylsulfonamidomethyl)-1H-pyrazol-1-yl)methyl)benzo[d]isoxazol-3-yl)benzenesulfonamide] | 
> 10 |  | C#CC(=O)NCc1cnn(Cc2cc(OC)c3c(NS(=O)(=O)c4cc(C(=O)O)ccc4OC)noc3c2)c1 [compound 86, 4-methoxy-3-(N-(4-methoxy-6-((4-(propiolamidomethyl)-1H-pyrazol-1-yl)methyl)benzo[d]isoxazol-3-yl)sulfamoyl)benzoic acid] | 
≤ 10 |  | C#CC(=O)N1CCC(c2cccc(-c3cc(OC)c4c(NS(=O)(=O)c5c(OC)cccc5OC)noc4c3)c2)C1 (centres unmarked) [compound 87, 2,6-dimethoxy-N-(4-methoxy-6-(3-(1-propioloylpyrrolidin-3-yl)phenyl)benzo[d]isoxazol-3-yl)benzenesulfonamide] | 
≤ 10 |  | C#CC(=O)N1CCN(c2cccc(-c3cc(OC)c4c(NS(=O)(=O)c5ccccc5OC)noc4c3)c2)CC1 [compound 74, 2-methoxy-N-(4-methoxy-6-(3-(4-propioloylpiperazin-1-yl)phenyl)benzo[d]isoxazol-3-yl)benzenesulfonamide] | 
 | ≤ 10 | C=CC(=O)N1CCN(c2ccccc2-c2cc(OC)c3c(NS(=O)(=O)c4c(OC)cccc4OC)noc3c2)CC1 [Synthetic Example 58, N-(6-(2-(4-acryloylpiperazin-1-yl)phenyl)-4-methoxybenzo[d]isoxazol-3-yl)-2,6-dimethoxybenzenesulfonamide] | 
≤ 10 |  | CCc1ccc(OC)c(S(=O)(=O)Nc2noc3cc(Cn4cc(CNS(C)(=O)=O)cn4)cc(OC)c23)c1 [compound 116] | 
 | ≤ 10 | C=CC(=O)NCc1cnn(Cc2cc(OC)c3c(NS(=O)(=O)c4ccccc4OC)noc3c2)c1 [Synthetic Example 51, N-((1-((4-methoxy-3-((2-methoxyphenyl)sulfonamido)benzo[d]isoxazol-6-yl)methyl)-1H-pyrazol-4-yl)methyl)acrylamide] | 

Reference: patent US11976075B2, “Inhibitors of the MYST family of lysine acetyl transferases” (Isosterix, Inc., priority 2022, dated 2024)
